Patent publication US12678446B2 (PFIZER INC., priority 2020, dated 2026)
Read-outs that look alike come from different tables or passages of the source.

What was measured:
[1] = system: RSV (RSV A2 ECACC, 0709161v); assay: RSV plaque reduction assay; assay type: cell-based, respiratory syncytial virus; settings: mean of at least two experiments unless noted (n = 1)
Protocol: Compounds w ere subjected to RSV plaque reduction assays according to the following protocol.
Hep-G2 cells (ECACC, 85011430) were passaged in flasks and seeded in 24-well plates in DMEM containing antibiotics and supplemented with 10% FBS. During inoculation and subsequent incubation, cells were cultured in DMEM containing 2% FBS. 100 plaque forming unit/well of RSV (RSV A2 ECACC, 0709161v) was mixed with eight serial dilutions of compound. Subsequently, 100 μL of the virus/compound mixtures was added to confluent Hep-G2 cell monolayers. The cells and virus/compound mixtures were incubated at 37° C. in a humidified 5% CO2 incubator for 2 h prior to removal of the inoculum and addition of 1 mL of overlay (DMEM containing 2% FBS and 0.8% CMC) containing compound dilutions. The cells and were incubated at 37° C. in a humidified 5% CO2 incubator for 2 days.
Cells were washed with PBS before adding 75/25% v/v EtOH MeOH, for 3 min. Fixative was removed and plates were washed with PBS. A pre-titrated amount of the primary antibody was added in 200 μL PBS/2% milk powder, and plates incubated for 90 min at 37° C. The plates were washed 3 times with PBS/0.05% Tween20 before addition of rabbit anti-goat horse radish peroxidase in 200 μL PBS/2% milk powder, and incubated for 1 h at 37° C. Following three wash steps with PBS/0.05% Tween20, 200 μL ready-to-use TrueBlue was added and plates were incubated at rt for 10-15 min before washing with water. After removal of water, plates were air-dried in the dark.
Plates were scanned and analysed using the Immunospot S6 Macro analyser, which is equipped with BioSpot analysis software for counting immunostained plaques (virospots). Plaque counts were used to calculate % infection relative to the mean of the plaque count in the virus control wells for RSV. […] Unless otherwise noted, plaque EC50 and cell toxicity CC50 values are a mean of at least two experiments and figures are rounded to whole units.

cell toxicity CC50 = assay type: cell-based; settings: human; Hep-G2 cells; mean of at least two experiments; read-out: Cell Cytotoxicity CC50
[2] = human respiratory syncytial virus, HepG2, read-out: RSV A2 Plaque EC50, RSV A2 in Hep-G2 cells

| SMILES | EC50 [1, 2] [nM] | CC50 (cell toxicity CC50) [nM] | EC50 ([1]; read-out: RSV A2 Plaque EC50, RSV A2 in Hep-G2 cells) [nM] |
| --- | --- | --- | --- |
| O=C(N[C@H]1N=C(c2ccccc2)c2cccc(F)c2NC1=O)c1c(-c2c(F)cccc2F)nn2c1OCC(CO)C2 (mixture of isomers) [Example 129, 2-(2,6-Difluorophenyl)-N-[(3S)-9-fluoro-2-oxo-5-phenyl-1,3-dihydro-1,4-benzodiazepin-3-yl]-6-(hydroxymethyl)-6,7-dihydro-5H-pyrazolo[5,1-b][1,3]oxazine-3-carboxamide] | 37 | > 25000 |  |
| CN(C)CC1COc2c(C(=O)N[C@H]3N=C(c4ccccc4)c4cccc(F)c4NC3=O)c(-c3ccccc3F)nn2C1 (mixture of isomers) [Example 171, 6-[(Dimethylamino)methyl]-N-[(3S)-9-fluoro-2-oxo-5-phenyl-1,3-dihydro-1,4-benzodiazepin-3-yl]-2-(2-fluorophenyl)-6,7-dihydro-5H-pyrazolo[5,1-b][1,3]oxazine-3-carboxamide] | 59 | > 25000 |  |
| C[C@@H]1CCn2nc(-c3ccc(N4C[C@@H]5C[C@H]4CO5)nc3F)c(C(=O)N[C@H]3N=C(c4ccccc4)c4cccc(F)c4NC3=O)c2O1 (single isomer, unassigned) [Example 88] | 146 | > 25000 |  |
| C[C@@H]1CCn2nc(-c3ccc(F)nc3N3C[C@@H]4C[C@H]3CO4)c(C(=O)N[C@H]3N=C(c4ccccc4)c4cccc(F)c4NC3=O)c2O1 (single isomer, unassigned) [Example 89] | 122 | > 25000 |  |
| C[C@@H]1CCn2nc(-c3ccc(N4C[C@H]5C[C@@H]4CO5)nc3F)c(C(=O)N[C@H]3N=C(c4ccccc4)c4cccc(F)c4NC3=O)c2O1 (single isomer, unassigned) [Example 90] | 20 | > 25000 |  |
| C[C@@H]1CCn2nc(-c3ccc(N4CC5(COC5)C4)nc3F)c(C(=O)N[C@H]3N=C(c4ccccc4)c4cccc(F)c4NC3=O)c2O1 (single isomer, unassigned) [Example 91] | 239 | > 25000 |  |
| O=C(N[C@H]1N=C(c2ccccc2)c2cccc(F)c2NC1=O)c1c(-c2ccccc2F)nn2c1OCC(CO)C2 (single isomer, unassigned) [Example 110-1, (6R*)-N-[(3S)-9-fluoro-2-oxo-5-phenyl-1,3-dihydro-1,4-benzodiazepin-3-yl]-2-(2-fluorophenyl)-6-(hydroxymethyl)-6,7-dihydro-5H-pyrazolo[5,1-b][1,3]oxazine-3-carboxamide] | 42 | > 25000 |  |
| O=C(N[C@H]1N=C(c2ccccc2)c2cccc(F)c2NC1=O)c1c(-c2c(F)cccc2F)nn2c1OCC(CO)C2 (single isomer, unassigned) [Example 129-1, (6R*)-2-(2,6-Difluorophenyl)-N-[(3S)-9-fluoro-2-oxo-5-phenyl-1,3-dihydro-1,4-benzodiazepin-3-yl]-6-(hydroxymethyl)-6,7-dihydro-5H-pyrazolo[5,1-b][1,3]oxazine-3-carboxamide] | 39 | > 25000 |  |
| CN(C)CC1COc2c(C(=O)N[C@H]3N=C(c4ccccc4)c4cccc(F)c4NC3=O)c(-c3ccccc3F)nn2C1 (single isomer, unassigned) [Example 171-2, (6S*)-6-[(Dimethylamino)methyl]-N-[(3S)-9-fluoro-2-oxo-5-phenyl-1,3-dihydro-1,4-benzodiazepin-3-yl]-2-(2-fluorophenyl)-6,7-dihydro-5H-pyrazolo[5,1-b][1,3]oxazine-3-carboxamide] | 56 | > 25000 |  |
| O=C(N[C@H]1N=C(c2ccccc2)c2ccccc2NC1=O)c1c(-c2c(F)cccc2F)nn2c1OC(CO)CC2 (single isomer, unassigned) [Example 188-1, (5R*)-2-(2,6-Difluorophenyl)-5-(hydroxymethyl)-N-[(3S)-2-oxo-5-phenyl-1,3-dihydro-1,4-benzodiazepin-3-yl]-6,7-dihydro-5H-pyrazolo[5,1-b][1,3]oxazine-3-carboxamide] | 141 | > 25000 |  |
| O=C(N[C@H]1N=C(c2ccccc2)c2cccc(F)c2NC1=O)c1c(-c2c(F)cccc2F)nn2c1OC(CO)CC2 (single isomer, unassigned) [Example 189-1, (5R*)-2-(2,6-Difluorophenyl)-N-[(3S)-9-fluoro-2-oxo-5-phenyl-1,3-dihydro-1,4-benzodiazepin-3-yl]-5-(hydroxymethyl)-6,7-dihydro-5H-pyrazolo[5,1-b][1,3]oxazine-3-carboxamide] | 41 | > 25000 |  |
| O=C(N[C@H]1N=C(c2ccccc2)c2cccc(F)c2NC1=O)c1c(-c2ccccc2F)nn2c1OC(CO)CC2 (single isomer, unassigned) [Example 190-1, (5R*)-N-[(3S)-9-Fluoro-2-oxo-5-phenyl-1,3-dihydro-1,4-benzodiazepin-3-yl]-2-(2-fluorophenyl)-5-(hydroxymethyl)-6,7-dihydro-5H-pyrazolo[5,1-b][1,3]oxazine-3-carboxamide] | 98 | > 25000 |  |
| COCC1CCn2nc(-c3ccccc3F)c(C(=O)N[C@H]3N=C(c4ccccc4)c4cccc(F)c4NC3=O)c2O1 (single isomer, unassigned) [Example 191-1, (5R*)-N-[(3S)-9-fluoro-2-oxo-5-phenyl-1,3-dihydro-1,4-benzodiazepin-3-yl]-2-(2-fluorophenyl)-5-(methoxymethyl)-6,7-dihydro-5H-pyrazolo[5,1-b][1,3]oxazine-3-carboxamide] |  | > 25000 | 83 |
| CC1CCn2nc(-c3ccc(N4C[C@@H]5C[C@H]4CO5)nc3)c(C(=O)NC3N=C(c4ccccc4)c4cccc(F)c4NC3=O)c2O1 (stereo in doubt) [Example 87, (5S)-5-Methyl-N-[(3R)-9-fluoro-2-oxo-5-phenyl-1,3-dihydro-1,4-benzodiazepin-3-yl]-2-[6-[(1S,4S)-2-oxa-5-azabicyclo[2.2.1]heptan-5-yl]pyridin-3-yl]-6,7-dihydro-5H-pyrazolo[5,1-b][1,3]oxazine-3-carboxamide] | 179 | > 25000 |  |
| CC1CCn2nc(Cc3ccccc3)c(C(=O)N[C@H]3N=C(c4ccccc4)c4cccc(F)c4NC3=O)c2O1 (stereo in doubt) [Example 109, (5S)-2-Benzyl-N-[(3S)-9-fluoro-2-oxo-5-phenyl-1,3-dihydro-1,4-benzodiazepin-3-yl]-5-methyl-6,7-dihydro-5H-pyrazolo[5,1-b][1,3]oxazine-3-carboxamide] | 114 | > 25000 |  |
| CC1Cn2nc(-c3ccccc3F)c(C(=O)N[C@H]3N=C(c4ccccc4)c4cccc(F)c4NC3=O)c2O1 (stereo in doubt) [Example 163, (2S)-N-[(3S)-9-fluoro-2-oxo-5-phenyl-1,3-dihydro-1,4-benzodiazepin-3-yl]-6-(2-fluorophenyl)-2-methyl-2,3-dihydropyrazolo[5,1-b][1,3]oxazole-7-carboxamide] | 76 | > 25000 |  |
| CN(C)CC1COc2c(C(=O)N[C@H]3N=C(c4ccccc4)c4cccc(F)c4NC3=O)c(-c3ccccc3F)nn2C1 (stereo in doubt) [Example 171-1, (6R*)-6-[(Dimethylamino)methyl]-N-[(3S)-9-fluoro-2-oxo-5-phenyl-1,3-dihydro-1,4-benzodiazepin-3-yl]-2-(2-fluorophenyl)-6,7-dihydro-5H-pyrazolo[5,1-b][1,3]oxazine-3-carboxamide] | 53 | > 25000 |  |
| O=C(N[C@H]1N=C(c2ccccc2)c2ccccc2NC1=O)c1c(-c2ccc(F)cc2F)nn2c1OCCC2 [Example 1, 2-(2,4-Difluorophenyl)-N-[(3S)-2-oxo-5-phenyl-1,3-dihydro-1,4-benzodiazepin-3-yl]-6,7-dihydro-5H-pyrazolo[5,1-b][1,3]oxazine-3-carboxamide] | 33 | > 25000 |  |
| O=C(N[C@H]1N=C(c2ccccc2)c2cccc(F)c2NC1=O)c1c(-c2ccc(F)cc2F)nn2c1OCCC2 [Example 2, 2-(2,4-Difluorophenyl)-N-[(3S)-9-fluoro-2-oxo-5-phenyl-1,3-dihydro-1,4-benzodiazepin-3-yl]-6,7-dihydro-5H-pyrazolo[5,1-b][1,3]oxazine-3-carobxamide] | 22 | > 25000 |  |
| CC(C)Nc1ccc(-c2nn3c(c2C(=O)N[C@H]2N=C(c4ccccc4)c4cccc(F)c4NC2=O)OCCC3)c(F)n1 [Example 4, N-[(3S)-9-Fluoro-2-oxo-5-phenyl-1,3-dihydro-1,4-benzodiazepin-3-yl]-2-[2-fluoro-6-(propan-2-ylamino)pyridin-3-yl]-6,7-dihydro-5H-pyrazolo[5,1-b][1,3]oxazine-3-carboxamide] | 29 | > 25000 |  |
